Test results published in patent publication US20140243302A1, “BRIDGED BICYCLIC COMPOUNDS FOR THE TREATMENT OF BACTERIAL INFECTIONS” (priority 2011, published 2014).
In brackets after ≈: the same amount, converted by molar mass.

Test system: Staphylococcus aureus Smith
Assay: MIC assay, modified agar dilution (CLSI), S. aureus Smith
Assay type: cell-based
Settings: Staphylococcus aureus, agar dilution, 35° C., 16-20 hr; lowest concentration that completely inhibited growth; read-out: S_aureus_Smith_WT_MIC
Description: The potency of antibacterial agents was measured using the Minimal Inhibitory Concentration (MIC) assay. The assay measures the ability of test agents to inhibit the growth of bacteria on agar-containing medium.
The bacterial test strains used were exemplified by Staphylococcus aureus Smith, Enterococcus faecium A2373, Streptococcus pneumoniae IID554, and Escherichia coli ATCC 25922. All strains were maintained as frozen stocks held at −80° C. in skim milk. Other bacterial test strains are well known to those skilled in the art and can be used for testing.
Mueller Hinton Agar (MHA BBL; Becton Dickinson and Company, Sparks, Md.) was used as the medium. MHA was supplemented with 5% defibrinated horse blood (DHB; Nippon Biotest Laboratories inc.) to support the growth of S. pneumoniae and E. faecium.
MIC values were determined using a modified agar dilution procedure described by the Clinical and Laboratory Standards Institute (CLSI; Methods for Dilution Antimicrobial Susceptibility Tests for Bacteria That Grow Aerobically; Approved Standard—Eighth Edition. CLSI document M07-A8 [ISBN 1-56238-689-1]. Clinical and Laboratory Standards Institute, 940 West Valley Road, Suite 1400, Wayne, Pa. 19087-1898 USA, 2009).
Stock solutions (6.4 mgmL) of test compounds were prepared in 100% ultrapure dimethyl sulfoxide (DMSO; source) on the day of the assay. Subsequent serial dilutions were performed to generate solutions with concentrations ranging from 6.4 to 0.0002 mgmL in 100% DMSO.
Agar medium containing test compound was prepared by adding the dilutions of antimicrobial solution to molten MHA at a temperature of 45-50° C. The agar and antimicrobial solution were mixed thoroughly, poured into petri dishes, and allowed to solidify at room temperature. The final concentration of test compounds in the MHA medium ranged from 128 to 0.001 μg/mL with two-fold dilutions. MHA plates lacking antibacterial compound were used for growth controls.
Prior to susceptibility testing, the bacterial isolates were removed from frozen storage, thawed at room temperature, sub-cultured to MHA medium and incubated overnight at 35° C. S. pneumoniae and E. faecium were subcultured on MHA supplemented with 5% DHB at 35° C. with […]. Colonies from each plate were suspended in normal saline. This suspension was adjusted to the turbidity of a 0.5 McFarland standard, 1-2×10^8 colony forming units (CFU) per mL, and diluted 100-fold to 1-2×10^6 CFUmL.
Suspensions of bacterial cultures were applied to the surface of MHA plates containing test compound as well as to a growth control plate lacking test compound using an inoculum-replicating device with 4 mm pins. The replicating device applied 5 uL of the bacterial suspension such that each spot contained approx. 1×10^4 CFU. Plates were dried for about 40 min and incubated at 35° C. for 16-20 hr prior to scoring.

Question: For `C=Cc1c(CNC23CCC(CCc4c(F)cnc5ccc(OC)nc45)(CC2)OC3)nc2c(c1C)OCC(=O)N2.Cl` [Example 199, 1-(2-(3-Fluoro-6-methoxy-1,5-naphthyridin-4-yl)ethyl)-N-((8-methyl-3-oxo-7-vinyl-3,4-dihydro-2H-pyrido[3,2-b][1,4]oxazin-6-yl)methyl)-2-oxabicyclo[2.2.2]octan-4-aminium chloride], which MIC is on record?
Answer: The MIC was 0.25 µg/mL.

Question: With `COc1ccc2ncc(Cl)c(C#CC34CCC(NCc5ccc6c(n5)NC(=O)CO6)(CC3)CC4)c2n1.Cl` [Example 6, 6-((4-((3-Chloro-6-methoxy-1,5-naphthyridin-4-yl)ethynyl)bicyclo[2.2.2]octan-1-ylamino)methyl)-2H-pyrido[3,2-b][1,4]oxazin-3(4H)-one Hydrochloride] as the molecule, how does the MIC read?
Answer: The MIC was 0.031 µg/mL.

Question: With `N[C@@H]1CO[C@@H]1COc1ccc2ncc(F)c(CCC34CCC(NCc5ccc6c(n5)NC(=O)CO6)(CC3)CO4)c2n1` [Example 184, 6-((1-(2-(6-(((2S,3R)-3-Aminooxetan-2-yl)methoxy)-3-fluoro-1,5-naphthyridin-4-yl)ethyl)-2-oxabicyclo[2.2.2]octan-4-ylamino)methyl)-2H-pyrido[3,2-b][1,4]oxazin-3(4H)-one] as the molecule, how does the MIC read?
Answer: Its MIC is 0.25 µg/mL (≈ 0.443 µM).

Question: `COc1ccc2ncc(F)c(CCC34CCC(NC/C=C/c5cc(F)ccc5F)(CC3)CO4)c2n1` [Example 188, (E)-N-(3-(2,5-Difluorophenyl)allyl)-1-(2-(3-fluoro-6-methoxy-1,5-naphthyridin-4-yl)ethyl)-2-oxabicyclo[2.2.2]octan-4-amine] was tested. Which MIC did it give?
Answer: Its MIC is 0.016 µg/mL (≈ 0.0331 µM).

Question: Which MIC does the source give for `COc1ccc2ncc(F)c(C[C@@H](O)C34CCC(NCc5cc6c(cn5)OCCO6)(CC3)CC4)c2n1.Cl` (single isomer, unassigned) [Example 200] here?
Answer: Its MIC is 0.75 µg/mL.

Question: With `COc1ccc2ncc(F)c(CCC34CCC(NCc5cc6c(F)ccc(F)c6nc5OC)(CC3)CO4)c2n1` [Example 288, N-((5,8-Difluoro-2-methoxyquinolin-3-yl)methyl)-1-(2-(3-fluoro-6-methoxy-1,5-naphthyridin-4-yl)ethyl)-2-oxabicyclo[2.2.2]octan-4-amine] as the molecule, how does the MIC read?
Answer: The MIC was 0.125 µg/mL (≈ 0.232 µM).

Question: With `O=C1COc2ccc(CNC34CCC(CCN5C(=O)COc6ccc(Br)cc65)(CC3)OC4)nc2N1` [Example 203, 1-(2-(6-Bromo-3-oxo-2H-benzo[b][1,4]oxazin-4(3H)-yl)ethyl)-N-((3-oxo-3,4-dihydro-2H-pyrido[3,2-b][1,4]oxazin-6-yl)methyl)-2-oxabicyclo[2.2.2]octan-4-aminium chloride] as the molecule, how does the MIC read?
Answer: The MIC was 0.25 µg/mL.

Question: For `COc1ccc2ncc(F)c(NCC34CCC(NCc5ccc6c(n5)NC(=O)CO6)(CC3)CO4)c2n1` [Example 136, 6-({1-[(3-Fluoro-6-methoxy-[1,5]naphthyridin-4-ylamino)-methyl]-2-oxa-bicyclo[2.2.2]oct-4-ylamino}-methyl)-4H-pyrido[3,2-b][1,4]oxazin-3-one], which MIC is on record?
Answer: The MIC was 0.25 µg/mL (≈ 0.506 µM).

Question: How did the MIC turn out when `CCOc1cc(C)c2ncc(F)c(CCC34CCC(NCc5ccc6c(n5)NC(=O)CO6)(CC3)CO4)c2n1` [Example 137, 6-[({1-[2-(6-Ethoxy-3-fluoro-8-methyl-1,5-naphthyridin-4-yl)ethyl]-2-oxabicyclo[2.2.2]oct-4-yl}amino)methyl]-2H-pyrido[3,2-b][1,4]oxazin-3(4H)-one] was run?
Answer: The MIC was 0.063 µg/mL (≈ 0.121 µM).

Question: `CNC(=O)COc1ccc2ncc(F)c(CCC34CCC(NC/C=C/c5cc(F)ccc5F)(CC3)CO4)c2n1` [Example 192, (E)-2-(8-(2-(4-(3-(2,5-Difluorophenyl)allylamino)-2-oxabicyclo[2.2.2]octan-1-yl)ethyl)-7-fluoro-1,5-naphthyridin-2-yloxy)-N-methylacetamide] was tested. Which MIC did it give?
Answer: The MIC was 0.031 µg/mL (≈ 0.0573 µM).

Question: With `COc1ccc2ncc(=O)n(CCC34CCC(NCc5cc6ccccc6n(C)c5=O)(CC3)CO4)c2n1` [Example 123, 6-Methoxy-4-(2-(4-((1-methyl-2-oxo-1,2-dihydroquinolin-3-yl)methylamino)-2-oxabicyclo[2.2.2]octan-1-yl)ethyl)pyrido[3,2-b]pyrazin-3(4H)-one] as the molecule, how does the MIC read?
Answer: The MIC was 1 µg/mL (≈ 1.99 µM).

Question: With `COc1ccc2ncc(F)c(CCC34CCC(NCc5ccc6c(n5)NC(=O)CS6)(CC3)CO4)c2n1` [Example 155, 6-((1-(2-(3-Fluoro-6-methoxy-1,5-naphthyridin-4-yl)ethyl)-2-oxabicyclo[2.2.2]octan-4-ylamino)methyl)-2H-pyrido[3,2-b][1,4]thiazin-3(4H)-one] as the molecule, how does the MIC read?
Answer: The MIC was 0.016 µg/mL (≈ 0.0314 µM).

Question: For `COc1ccc2ncc(F)c(CC(O)C34CCC(NCc5ccc6c(n5)NC(=O)CS6)(CC3)CO4)c2n1` (centres unmarked) [Example 156, 6-((1-(2-(3-Fluoro-6-methoxy-1,5-naphthyridin-4-yl)-1-hydroxyethyl)-2-oxabicyclo[2.2.2]octan-4-ylamino)methyl)-2H-pyrido[3,2-b][1,4]thiazin-3(4H)-one], which MIC is on record?
Answer: The MIC was 0.063 µg/mL (≈ 0.12 µM).

Question: Which MIC does the source give for `O=C1COc2ccc(CNC34CCC(/C=C\c5c(Cl)cnc6ccc(O)nc56)(CC3)CC4)nc2N1` [Example 7, (Z)-6-((4-(2-(3-Chloro-6-hydroxy-1,5-naphthyridin-4-yl)vinyl)bicyclo[2.2.2]octan-1-ylamino)methyl)-2H-pyrido[3,2-b][1,4]oxazin-3(4H)-one] here?
Answer: Its MIC is 0.5 µg/mL (≈ 1.02 µM).

Question: Which MIC does the source give for `COc1ccc2nc(CNC34CCC(CCc5c(Cl)cnc6ccc(OC)nc56)(CC3)CC4)ccc2c1` [Example 57, 4-(2-(3-Chloro-6-methoxy-1,5-naphthyridin-4-yl)ethyl)-N-((6-methoxyquinolin-2-yl)methyl)bicyclo[2.2.2]octan-1-amine] here?
Answer: Its MIC is 4 µg/mL (≈ 7.74 µM).

Question: How did the MIC turn out when `COc1ccc2ncc(F)c(CCC34CCC(NCc5ccc(N6CCCC6)nc5)(CC3)CO4)c2n1` [Example 82, 1-(2-(3-Fluoro-6-methoxy-1,5-naphthyridin-4-yl)ethyl)-N-((6-(pyrrolidin-1-yl)pyridin-3-yl)methyl)-2-oxabicyclo[2.2.2]octan-4-amine] was run?
Answer: The MIC was 0.25 µg/mL (≈ 0.509 µM).

Question: For `O=C1COc2ccc(CNC34CCC(CCc5c(F)cnc6ccc(N7CCOC7=O)nc56)(CC3)OC4)nc2N1` [Example 292, 6-((1-(2-(3-Fluoro-6-(2-oxooxazolidin-3-yl)-1,5-naphthyridin-4-yl)ethyl)-2-oxabicyclo[2.2.2]octan-4-ylamino)methyl)-2H-pyrido[3,2-b][1,4]oxazin-3(4H)-one], which MIC is on record?
Answer: The MIC was 0.125 µg/mL (≈ 0.228 µM).

Question: For `COc1cc(C)c2ncc(F)c(CCC34CCC(NCc5ccc6c(n5)NC(=O)CO6)(CC3)CO4)c2c1` [Example 139, 6-((1-(2-(3-Fluoro-6-methoxy-8-methylquinolin-4-yl)ethyl)-2-oxabicyclo[2.2.2]octan-4-ylamino)methyl)-2H-pyrido[3,2-b][1,4]oxazin-3(4H)-one], which MIC is on record?
Answer: The MIC was 0.063 µg/mL (≈ 0.124 µM).

Question: How did the MIC turn out when `COc1ccc2ncc(F)c(/C=C/C34CCC(NCc5ccc6c(n5)NC(=O)CO6)(CC3)CO4)c2n1` [Example 19, (E)-6-((1-(2-(3-Fluoro-6-methoxy-1,5-naphthyridin-4-yl)vinyl)-2-oxabicyclo[2.2.2]octan-4-ylamino)methyl)-2H-pyrido[3,2-b][1,4]oxazin-3(4H)-one] was run?
Answer: Its MIC is 0.008 µg/mL (≈ 0.0163 µM).

Question: With `COc1ccc2ncc(F)c(CC(O)C34CCC(NC(=O)c5ccc(C)c(F)c5)(CC3)CO4)c2n1` (centres unmarked) [Example 173, 3-Fluoro-N-{1-[2-(3-fluoro-6-methoxy-1,5-naphthyridin-4-yl)-1-hydroxyethyl]-2-oxabicyclo[2.2.2]oct-4-yl}-4-methylbenzamide] as the molecule, how does the MIC read?
Answer: Its MIC is 0.125 µg/mL (≈ 0.259 µM).

Question: With `N#Cc1ccc2ccc(=O)n(CCC34CCC(NCc5ccc6c(n5)NC(=O)CO6)(CC3)CO4)c2c1` [Example 180, 2-Oxo-1-[2-(4-{[(3-oxo-3,4-dihydro-2H-pyrido[3,2-b][1,4]oxazin-6-yl)methyl]amino}-2-oxabicyclo[2.2.2]oct-1-yl)ethyl]-1,2-dihydroquinoline-7-carbonitrile] as the molecule, how does the MIC read?
Answer: The MIC was 0.031 µg/mL (≈ 0.0638 µM).

Same assay, conditions: agar dilution, 35° C., 16-20 hr; lowest concentration that completely inhibited growth

Question: With `COc1ccc2ncc(F)c(CC(O)C34CCC(NCc5ccc6c(n5)NC(=O)CO6)(CC3)CO4)c2n1.Cl` (single isomer, unassigned) [Example 20b, 6-((1-(2-(3-Fluoro-6-methoxy-1,5-naphthyridin-4-yl)-1-hydroxyethyl)-2-oxabicyclo[2.2.2]octan-4-ylamino)methyl)-2H-pyrido[3,2-b][1,4]oxazin-3(4H)-one Hydrochloride] as the molecule, how does the S_aureus_Smith_WT_MIC read?
Answer: Its S_aureus_Smith_WT_MIC is 0.0630 µg/mL.

Same assay, conditions: agar dilution, 35° C., 16-20 hr; lowest concentration that completely inhibited growth; Hydrochloride

Question: `COc1ccc2ncc(F)c(C(O)C(O)C34CCC(NCc5ccc6c(n5)NC(=O)CO6)(CC3)CO4)c2n1.Cl` (single isomer, unassigned) [Example 26b, 6-((1-(2-(3-Fluoro-6-methoxy-1,5-naphthyridin-4-yl)-1,2-dihydroxyethyl)-2-oxabicyclo[2.2.2]octan-4-ylamino)methyl)-2H-pyrido[3,2-b][1,4]oxazin-3(4H)-one Hydrochloride] was tested. Which S_aureus_Smith_WT_MIC did it give?
Answer: The S_aureus_Smith_WT_MIC was 1.00 µg/mL.
